Reference: patent publication US20260257992A1, “AGONISTS OF SMALL HETERODIMER PARTNER FOR CANCER THERAPY” (THE BOARD OF TRUSTEES OF THE UNIVERSITY OF ILLINOIS, priority 2023, published 2026)
pIC50: −log10 of the molar value.

Columns and labels:
E0771 tumors = assay: Survival after orthotopic graft of a suboptimal number of E0771-luc cells; format: in vivo, mouse; settings: treatment ceased after 18 days
Description: We then evaluated DSHN in a model where a low, suboptimal number of E0771-luc cells were grafted orthotopically. Since NR0B2 was also implicated in regulating myeloid cell expression of PD-L1, we investigated the effect of acute DSHN combined with anti-PD-L1 (αPDL1) treatment on subsequent outgrowth of E0771 tumors. Treatment was ceased after 18 days and mice were monitored through time. […] We next assessed the effects of DSHN combined with αPDL1 on growth of primary tumors (optimal number of cells used to establish graft). […] We then evaluated the ability of DSHN to impact established metastatic disease—a stage that is refractory to standard of care therapy and immune checkpoint blockade. […] In summary, the tool compound DSHN provides proof of principle that the NR0B2-myeloid cell-Treg axis can be targeted for the treatment of breast cancer.

Treg expansion = Treg expansion in co-culture with compound-treated splenic CD11C+ dendritic cells; format: cell-based, mouse; design: key to Treg expansion Dendritic Cells: ✓: using strict cutoffs with respect to DSHN for passing each metric; X: using strict cutoffs with respect to DSHN for passing each metric
Procedure: Preparation of Bone Marrow-Derived Macrophages (BMDMs) and Dendritic Cells. Bone marrow cells were collected from mouse tibia and femur. Cells were passed through 70-micron cell strainer and subsequently cultured 10 mL complete RPMI media supplemented with 20 ng/mL of recombinant murine M-CSF (576406; BioLegend, 315-02 PeproTech). On day 3, additional 5 ml of the complete media was added. On day 7, media was replaced. BMDMs were harvested on day 10 using cell stripper solution for further experiments. Dendritic cells were isolated from the spleens of wildtype, using mouse CD11c UltraPure MicroBeads (130-125-835; Miltenyi Biotec) according to the manufacturer's instructions) and cultured in RPMI medium supplemented with 10% heat-inactivated charcoal-stripped FBS, 50 μM β-mercaptoethanol, 1% sodium pyruvate, 1% nonessential amino acids, % penicillin/streptomycin, and 1% Glutamax.
In vitro Treg expansion assays. T cells were cultured in RPMI medium supplemented with 10% heat-inactivated charcoal-stripped FBS, 50 μM β-mercaptoethanol (Gibco), 1% sodium pyruvate, 1% nonessential amino acids, % penicillin/streptomycin, and 1% Glutamax (Gibco). Naïve CD4^+ T cells were isolated from the spleens of wildtype and OT-II, using Naive CD4^+ T Cell Isolation Kit (Miltenyi Biotec according to the manufacturer's instructions). T cells were labeled with the vital dye CFSE (BioLegend) or Cell Trace Violet (ThermoFisher) according to the manufacturer's instructions. For wildtype Treg expansion in presence of antigen presenting cells, naïve CD4^+ T cells were co-cultured with APC at indicated ratio in the presence of 0.5 μg/mL (anti-CD3 BioLegend), 0.5 ng/mL TGFβ (BioLegend) and 0.5 ng/ml IL-2 (BioLegend) for 72 hr at 37° C. For OT-II Treg expansion, OTII naïve CD4^+ T cells from OT-II mice were activated by antigen presentation by culturing BMDMs were primed with 10 μg/mL OVA323-339 (Bachem) and 0.5 μg/mL LPS (Sigma). naïve CD4+ T cells from OTII mice were co-cultured with primed APC at indicated ratio for 72 hrs. After 72 hrs of culture, cells were transferred into V-bottom plates (BD), pelleted by centrifugation and incubated with antibody staining mix containing Ghost Dye™ Red 780 viability dye diluted in PBS for 15 minutes at 4° C. Cell surface antigens were stained for 15 minutes at 4° C. with an antibody staining mix containing Ghost Dye™ Red 780 viability dye diluted in PBS. Cells were fixed and permeabilized with BD Cytofix/Cytoperm™ for 20 minutes at 4° C. Antibodies against intracellular antigens were diluted in 1×BD Perm/Wash™ buffer and cells were stained for 30 minutes at 4° C. Cytometry data were acquired on a LSRII, Fortessa, Symphony A1 (Becton Dickinson, NJ). Foxp3 induction was assessed by expression of FOXP3.

NR0B2 = target: T1, NR0B2 (Mus musculus, UniProt Q62227); assay: Attenuation of GW3965 (LXR agonist) induction of ABCA1 mRNA in BMDMs; format: cell-based
T1 construct: Dose response assay in BMDMs pre-treated with increasing doses of DSHN-OMe and then treated with 1 μM GW3965, using ABCA1 mRNA as an endpoint; endogenous in cells; host or cells: mouse bone marrow derived macrophages (BMDMs)
T1 sequence (Q62227 1-260): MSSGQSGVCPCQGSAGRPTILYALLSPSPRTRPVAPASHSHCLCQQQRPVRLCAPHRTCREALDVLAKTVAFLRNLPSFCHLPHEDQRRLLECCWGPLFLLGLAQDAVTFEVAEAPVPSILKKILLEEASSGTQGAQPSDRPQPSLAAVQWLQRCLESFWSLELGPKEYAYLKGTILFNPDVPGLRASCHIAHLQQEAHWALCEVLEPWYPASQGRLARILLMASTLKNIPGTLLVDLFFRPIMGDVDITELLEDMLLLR
Procedure: FIG. 5A-5D. DSHN-OMe, an NR0B2 small molecule ligand with increased potency in terms of reducing Treg expansion and strong efficacy against metastatic mammary tumors. (A) DSHN-OMe effectively reduces induction of LXR target gene ABCA1 by GW3965. Different letters denote statistical difference between GW3965 treated groups (N=3-4/group, 1-way ANOVA followed by Šidák test). (B) Dose response assay in BMDMs pre-treated with increasing doses of DSHN-OMe and then treated with 1 μM GW3965, using ABCA1 mRNA as an endpoint. Data was normalized to 0.01 μM DSHN-OMe (0%) and GW3965 alone (100%). DSHN (100 μM) is indicated for comparison (bar at end of graph). […] (C) Thermal shift assay using a recombinant protein presence of a fluorescent dye. Plot of raw data is above plot of first derivative. (D) DSHN-OMe is ineffective at regulating ABCA1 when NR0B2 is knocked down with siRNA in BMDMs.
The TM for apo/unliganded was 46.74±0.22, DSHN-OMe at 46.92±0.17 and DSHN at 46.34±0.51° C. (FIG. 5C).

| Compound | Survival of one DSHN-only treated mouse, no palpable tumor (E0771 tumors; post graft) | Survival time, combined with αPDL1 (E0771 tumors; versus placebo) | Tregs, splenic CD11C+ (DC-enriched) cells (Treg expansion; 50 μM DSHN-OMe versus 100 μM DSHN) | Treg expansion Dendritic Cells (Treg expansion; pass/fail with respect to DSHN) | pIC50 (NR0B2; BMDMs pre-treated with compound, then 1 μM GW3965, 4 parameter variable slope fit, read-out: IC50, ABCA1 mRNA as endpoint) | LXR induction of ABCA1 (NR0B2; BMDMs, GW3965) | Attenuation of ABCA1 induction with NR0B2 knockdown (NR0B2; BMDMs, NR0B2 siRNA, GW3965) |
| --- | --- | --- | --- | --- | --- | --- | --- |
| CCN(CC)S(=O)(=O)c1cccc2cc(C(=O)O)c(O)cc12 [DSHN, reference compound] | more than 400 days | significantly increased survival time | – | – | – | – | – |
| CCN(CC)S(=O)(=O)c1cccc2cc(C(=O)OC)c(O)cc12 [DSHN-OMe, Methyl 5-(N,N-diethylsulfamoyl)-3-hydroxy-2-naphthoate] | – | – | significantly fewer Tregs compared to twice the dose of DSHN | ✓ | 5.42 | reducing LXR induction of ABCA1 in a dose-related manner | lost when NR0B2 was knocked down in BMDMs |
